Test system: Parkinson's Disease (PD) patients
Assay: Levodopa level medication test: UPDRS rigidity score and wrist rigidity index by wearable angular velocity sensor
Assay type: in vivo
Conditions: for UPDRS: motor classification for Rigidity & Rest Tremor (0 to 4); for Rigidity label (Avg): average, higher values = lower rigidity; for Rigidity label: higher index values correspond to lower perceived wrist rigidity
Description: FIG. 6: angular velocity data of a wrist rigidity assessment recorded using a device according to an embodiment of the present disclosure for a first subject for a period of time (a) without levodopa and (b) with a clinically effective dosage regime of levodopa. Also pictured are values of a rigidity index (label) calculated according to the present disclosure. Higher index values correspond to lower perceived wrist rigidity. FIG. 7: angular velocity data of a wrist rigidity assessment recorded using a device according to an embodiment of the present disclosure for a second subject for a period of time (a) without levodopa and (b) with a clinically effective dosage regime of levodopa. Also pictured are values of a rigidity index (label) calculated according to the present disclosure. Higher index values correspond to lower perceived wrist rigidity. Levodopa is an amino acid precursor of dopamine with antiparkinsonian properties. Levodopa is a prodrug that is converted to dopamine by DOPA decarboxylase and can cross the blood-brain barrier. Two patients (person and person) were subjected to a Levodopa level medication test where an experienced neurologist evaluates the subjective Unified PD Rating Scale (UPDRS) motor semi-quantitative classification for Rigidity & Rest Tremor (0 to 4) for a baseline (no levodopa) and in steps of increasing levodopa dosages until a UPDRS of 0 is achieved. This is the dosage as prescribed to the patient. At this dosage, wrist rigidity was evaluated as presently disclosed. As described above, higher index values correspond to lower perceived wrist rigidities. See also FIG. 6-7. A threshold of a rigidity measure according to the present disclosure, for example of 70% or 80%, can thus be used to objectively identify a clinically effective dosage regime. Furthermore, a threshold of a rigidity measure according to the present disclosure can also be used to identify a clinically effective dosage regime which also minimizes the risk of side effects.

N[C@@H](Cc1ccc(O)c(O)c1)C(=O)O [Levodopa]
UPDRS (Subject 1, with clinically effective dosage of levodopa, baseline without levodopa 3): 0 | Rigidity label (Avg) (Subject 1, with levodopa, baseline without levodopa 46.9): 74.3% | Rigidity label (Subject 1, with levodopa, baseline without levodopa 40-50): 70-80% | UPDRS (Subject 2, with clinically effective dosage of levodopa, baseline without levodopa 2): 0 | Rigidity label (Avg) (Subject 2, with levodopa, baseline without levodopa 48.6): 84.9% | Rigidity label (Subject 2, with levodopa, baseline without levodopa 50): 80-90%
